From patent US9624278B2, “Protein complex comprising MCM8 and MCM9 proteins and their use” (CENTRE NATIONAL DE LA RECHERCHE SCIENTIFIQUE, priority 2011, dated 2017)

Assays:
Assay type in all cases: cell-based, mouse
WT MEF cells = assay: BrdU incorporation and growth of WT MEF cells treated 24 h with aphidicolin and released
Description: (§1) In Xenopus egg extracts, MCM8 and 9 were found essential for efficient DNA replication^4 5. However, in in-vitro systems derived from Xenopus eggs, DNA replication efficiency is at its maximum, as all potential DNA replication origins are activated, leading to an unusual short inter-origin space and an accelerated S phase (less than 20 min). A deficiency in DNA replication could be therefore rapidly detected. In somatic cells, S phase stands for 6-10 hrs, including during mouse early development (Wowlett and Bolton, 1985), J. Embryol. Exp. Morph, 87, 175; Ferreira and Carmon Forseca, 1997, J. Cell Sci, 11, 889). Therefore, defects in DNA replication can be compensated by induction of the store of dormant origins and/or a higher rate of replication. To investigate this possibility, and reveal possible DNA replication weaknesses in KO MEFs the Inventors first performed DNA fiber stretching^24, using a double pulse-labeling method, applying first a CldU pulse (“red” pulse), followed a second IdU pulse (“green” pulse), as in FIG. 29. Replication fork arrests can be detected by measuring the length of the second pulse, which becomes shorter if the fork is blocked or slowing down. […] To reveal whether MCM9 KO cells were more sensitive to replication stress, the Inventors treated MEF cells for 24 hrs with low concentration (1 μM) of aphidicolin (APH), an inhibitor of DNA polymerases that slows down or blocks replication forks. First, the Inventors quantified the global efficiency of DNA replication by measuring the proportion of cells incorporating BrdU. […] The Inventors concluded that KO cells were highly sensitive to replication fork inhibition. When cells were further released from APH treatment, control cells re-establish the original BrdU-intensity within the first 3 hours (FIG. 30, FIGS. 31A-T). […] The Inventors conclude that MCM9 KO cells are highly sensitive to replication stress, and unable to rescue arrested forks, resulting in growth arrest. […]

MCM9-deficient MEF cells = assay: BrdU incorporation and growth of MCM9-deficient MEF cells treated 24 h with aphidicolin and released
Description: as §1

MCM9 and MCM8 = assay: Western blot of WT MEF cells exposed for 24 h to APH; conditions: WT MEFs treated by APH
Description: FIG. 34B represents a western blot analysis of WT-(lanes A and C) and MCM9-deficient-(lanes B and D) MEF cells exposed (lanes C and D) or not (lanes A and B) for 24 h to APH for MCM9 (panel 1), MCM8 (panel 2), Chk1-P (panel 3), Chk2 (panel 4) and GAPDH (panel 5) as loading control. […] Rad51 is an essential protein of the homologous recombination pathway that is the main repair mechanisms of DSBs caused by replication fork arrest^25,12. […] For chromatin isolation, MEF cells were harvested, washed with PBS, frozen at −80° C. or directly lysed in CSK buffer (150 mM NaCl, 10 mM HEPES pH 7.5, 300 mM Sucrose, 1 mM MgCl2, 1 mM EDTA, 1 mM ATP.MgCl2, 1 mM DTT, 0.2% Triton X-100, Phosphatase-inhibitors (Calbiochem), protease-inhibitors Leupeptin, Aprotinin and Pepstatin at a concentration of 10 μg/ml) for 10 min on ice in a volume of 1 μl buffer for 2000 cells. For whole cell extract (“WCE”), a sample of the lysate was mixed with two times Laemli SDS buffer and boiled. The lysate was centrifuged at 3′800 g for 5 min at 4° C., the pellet homogenized again in CSK buffer, extracted again for 5 min on ice and centrifuged again and finally solubilized in two times Laemli SDS buffer (1 μl buffer for 5000 cells).

Compound: C[C@@]1(CO)[C@H](O)CC[C@@]2(C)[C@H]1CC[C@H]1C[C@@H]3C[C@@]12CC[C@]3(O)CO [APH, aphidicolin]
- BrdU signal in nuclei after the APH treatment (WT MEF cells; WT MEF cells, 1 μM aphidicolin, 24 hrs): strongly reduced
- cell growth after the release from APH (WT MEF cells; WT MEF cells, 24 h APH then released without drug): resumed growth soon
- time to re-establish the original BrdU-intensity after release from APH (WT MEF cells; control (WT) MEF cells, released from 24 h APH treatment): ≤ 3 h
- cell growth after the release from APH (MCM9-deficient MEF cells; MCM9- (as well as MCM8-) KO MEF cells, 24 h APH then released without drug): died or stopped dividing
- BrdU-labeled nuclei after the APH treatment (MCM9-deficient MEF cells; MCM9-deficient MEF cells, 1 μM aphidicolin, 24 hrs): nearly no BrdU-labeled nuclei
- time until percentage of BrdU-positive cells comparable to before the APH treatment (MCM9-deficient MEF cells; surviving MCM9-deficient KO MEF cells, released from 24 h APH treatment): 48 h
- expression of MCM9 and MCM8 at the protein level (MCM9 and MCM8): stronger expression
